The text below walks through data of patent US11529350B2, “Tyrosine kinase non-receptor 1 (TNK1) inhibitors and uses thereof” (Sumitomo Pharma Oncology, Inc., priority 2019, dated 2022).

One data set relates to L540 xenografts. As to the kind of experiment: In vivo efficacy study in subcutaneous L540 Hodgkin's lymphoma CDX model. Conditions: for tumor growth inhibition: oral gavage daily for 21 days. How it is done: An efficacy study was performed using Example No. 13 in a L540 CDX mouse model. Animals were NOD-SCID (#394) female mice 6-8 weeks of age from Charles River Laboratories (CRL). Example No. 13 was formulated weekly using Tween 80:Ethanol:PEG400:Water (2:10:30:58 v/v) as a vehicle. There were four treatment groups (n=10, 40 animals in total): a vehicle/control group, a group treated with 10 mg/kg Example No. 13, a group treated with 25 mg/kg Example No. 13 and a group treated with 50 mg/kg Example No. 13. When the average tumor volume reached 80-120 mm^3, animals were randomized and dosed daily for 21 days via oral gavage, 10 ml/kg dose volume. […] No tissues were collected. IDEXX pathogen test was performed prior to the cell culture; Corynebacterium bovis, Corynebacterium sp. (HAC2), EBV, HCMV, Hepatitis B, Hepatitis C, HIV1, HIV2, HPV16, HPV18, HTLV1, HTLV2, LDEV, and Mycoplasma sp. were tested, and all results were negative. Tumor volume measurements are provided as mean absolute tumor volume +/−SEM.

The subject of data set [1] is TNK1 and STAT5 phosphorylation in L540 tumor tissue. Briefly: In vivo single dose PD study, L540 xenograft, Western blot. Details: species or system mouse. Conditions: L540 tumor samples, 50 mg/kg. The protocol: The objective of this study was to assess in vivo pharmacodynamic activity of Example No. 13 in a subcutaneous xenograft model of Hodgkin's lymphoma in female NOD SCID mice, aged 6-8 weeks. There were 4 groups (and a total of 84 mice): Example No. 13 at 50 mg/kg, 25 mg/kg, or 10 mg/kg (n=27 mice for each dose), and vehicle (n=3 mice). When the average tumor volume reached 300 mm^3, animals were randomized and dosed once p.o. at a 10 mL/kg dose volume. Blood and tumors were collected at nine different time points.
Example No. 13 was formulated in Tween 80 (0.2 mL), ethanol (1 mL), PEG400 (3 mL), and water (5.8 mL).
In this study, protein expression was analyzed by Western blotting method. Tissue samples were acquired as part of a single dose PK/PD study. Equal amounts of tumor were placed into a bead tube, lysis buffer (RIPA buffer (Sigma No. 0278), Halt CocktaiL (ThermoFisher No. 78440), EDTA (ThermoFisher No. 1861274), PhosSTOP (Sigma No. 04906845001), cOmplete (Sigma No. 11697498001) and Inhibitor Cocktail 3 (Sigma No. P0044-1ML)) was added, and samples were homogenized using bead homogenizer (2×20 s at 4.5 m/s (Fisherbrand Bead Mill 24 Homogenizer, Fisher Scientific)). […]
Protein concentration was determined using BCA kit (Invitrogen No. 23225). Equal amounts of protein were pooled from each treatment group, and concentration was measured again in the pooled samples. […]
For orientation: In western blotting, separated proteins are transferred to a membrane and probed.

As for `COc1cc(N2CCN(C)CC2)c(Cl)cc1Nc1ncc(Cl)c(Nc2cccnc2N2CCCC2=O)n1` [Example No. 13, 1-(3-((5-chloro-2-((5-chloro-2-methoxy-4-(4-methylpiperazin-1-yl)phenyl)amino)pyrimidin-4-yl)amino)pyridin-2-yl)pyrrolidin-2-one], the tumor growth inhibition came to 35.17% with L540 xenografts (10 mg/kg, at Day 21); 74.20% in the data set with L540 xenografts (25 mg/kg, at Day 31); 86.5% with L540 xenografts (50 mg/kg, at Day 31). For the same compound, in the data set with L540 xenografts (50 mg/kg), the body weight loss entry is “moderate”. Moreover, the “animals found dead on Day 7, possibly due to drug toxicity” value in the data set with L540 xenografts (50 mg/kg group (n=10)) is given as “Two”. In addition, the “continued tumor growth inhibition post-dosing” value with L540 xenografts (25 and 50 mg/kg, dosing stopped on day 21) is “up to 10 days”. For the same compound, the “earliest time at which inhibition of STAT5 phosphorylation was observed after dosing” value in data set [1] lay within 15 to 30 min.
